Results reported in US7704993B2, “Benzazepine derivatives and methods of prophylaxis or treatment of 5ht2c receptor associated diseases” (Arena Pharmaceuticals, Inc., priority 2003, dated 2010).

Assays:
human 5HT2C receptor = target: T1, human 5HT2C receptor (Homo sapiens, UniProt P28335); test: Intracellular IP3 Accumulation Assay; assay type: cell-based; settings: HEK293 cells transfected with human 5HT2C receptor cDNA; read-out: 5HT2C (IC50) IP Accumulation Assay
T1 construct: expressed in transfected cells; host or cells: HEK293 cells, transient transfection with lipofectamine
T1 sequence (P28335 33-458): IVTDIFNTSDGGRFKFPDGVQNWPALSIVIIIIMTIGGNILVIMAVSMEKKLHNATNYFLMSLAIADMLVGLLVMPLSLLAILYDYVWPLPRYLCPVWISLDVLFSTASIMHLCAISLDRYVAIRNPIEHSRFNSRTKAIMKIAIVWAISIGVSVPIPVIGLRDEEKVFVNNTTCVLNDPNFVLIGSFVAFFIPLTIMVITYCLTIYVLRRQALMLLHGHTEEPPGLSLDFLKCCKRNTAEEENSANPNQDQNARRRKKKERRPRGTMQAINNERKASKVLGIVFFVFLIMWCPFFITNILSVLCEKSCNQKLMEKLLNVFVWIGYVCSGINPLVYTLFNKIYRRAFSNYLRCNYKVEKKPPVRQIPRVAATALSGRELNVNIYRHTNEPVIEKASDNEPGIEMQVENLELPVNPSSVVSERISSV
Experimental: Intracellular IP3 Accumulation Assay:
HEK293 cells were transfected in 15 cm sterile dishes with or without (control) 16 ug of human 5HT2C receptor cDNA [for example see, Saltzman, A. G., et al. Biochem. Biophys. Res. Commun. 181, 1469-1478 (1991)] using 25 ul of lipofectamine. Cells were then incubated for 3-4 hours at 37° C./5% CO2 and then transfection media was removed and replaced with 100 ul of DMEM. Cells were then plated onto 100 cm sterile dishes. The next day cells were plated into 96 well PDL microtiter plates at a density of 55 K/0.2 ml. Six hours latter, media was exchanged with [^3H]inositol (0.25 uCi/well) in inositol free DMEM and plates were incubated at 37° C./5% CO2 overnight. The next day, wells were aspirated and 200 ul of DMEM containing test compound, 10 uM pargyline, and 10 mM LiCl was added to appropriate wells. Plates were then incubated at 37° C./5% CO2 for three hours followed aspiration and by addition of fresh ice cold stop solution (1M KOH, 19 mM Na-borate, 3.8 mM EDTA) to each well. Plates were kept on ice for 5-10 min and the wells were neutralized by addition of 200 ul of fresh ice cold neutralization solution (7.5% HCl). Plates were then frozen until further processing is desired. The lysate was then transferred into 1.5 ml Eppendorf tubes and 1 ml of chloroform/methanol (1:2) was added/tube. […]

[1] = system: amyloid precursor protein (APPs) secretion / Aβ production; settings: guinea pigs, repeat administration; cited from earlier work

| Structure (SMILES) | IC50 (human 5HT2C receptor) [nM] | amyloid precursor protein (APPs) secretion [1] | levels of Aβ production in vivo [1] |
| --- | --- | --- | --- |
| CC1CNCCc2c(Cl)cc(Cl)cc21 (racemic) [Compound 1, (R,S) 6,8-Dichloro-1-methyl-2,3,4,5-tetrahydro-1H-3-benzazepine] | 11.7 | – | – |
| CC1CNCCc2ccc(Cl)c(F)c21 (racemic) [Compound 3, (R,S) 8-Chloro-9-fluoro-1-methyl-2,3,4,5-tetrahydro-1H-3-benzazepine] | 24.5 | – | – |
| C[C@H](N)Cc1cccc(C(F)(F)F)c1 [dexnorfenfluramine (DEXNOR), dexnorfenfluramine] | – | stimulated | reducing |
